In ChEMBL document CHEMBL2203030, “Synthesis, characterization, antidepressant and antioxidant activity of novel piperamides bearing piperidine and piperazine analogues” (Bioorg Med Chem Lett, 2012):
≈ marks a conversion by molar mass, not a printed value.

Assays:
Staphylococcus aureus [1] = assay: Antimicrobial activity against Staphylococcus aureus NCIM 5021 at 100 ug/mL incubated for 24 hrs by agar disc diffusion method; type: functional; conditions: NCIM 5021, 24 h, read-out: IZ
Escherichia coli [2] = assay: Antimicrobial activity against Escherichia coli NCIM 2574 at 100 ug/mL incubated for 24 hrs by agar disc diffusion method; type: functional; conditions: NCIM 2574, 24 h, read-out: IZ
Candida albicans [3] = assay: Antimicrobial activity against Candida albicans NCIM 3471 by broth dilution method; type: functional
Escherichia coli [4] = assay: Antimicrobial activity against Escherichia coli NCIM 2574 by broth dilution method; type: functional
Bacillus subtilis [5] = assay: Antimicrobial activity against Bacillus subtilis NCIM 2999 by broth dilution method; type: functional
Pseudomonas aeruginosa [6] = assay: Antimicrobial activity against Pseudomonas aeruginosa NCIM 5029 at 100 ug/mL incubated for 24 hrs by agar disc diffusion method; type: functional; conditions: NCIM 5029, 24 h, read-out: IZ
Bacillus subtilis [7] = assay: Antimicrobial activity against Bacillus subtilis NCIM 2999 at 100 ug/mL incubated for 24 hrs by agar disc diffusion method; type: functional; conditions: NCIM 2999, 24 h, read-out: IZ
Aspergillus flavus [8] = assay: Antimicrobial activity against Aspergillus flavus NCIM 524 at 100 ug/mL incubated for 48 hrs by agar disc diffusion method; type: functional; conditions: NCIM 524, 48 h, read-out: IZ
Mus musculus [9] = assay: Antidepressant activity in Swiss albino mouse assessed as mean immobility time measured during last 4 mins of single 6 mins test session at 20 mg/kg, po by forced swim test (reference value: 75.33 +/- 3.35 secs); type: functional
[10] = target: T1, Amine oxidase [flavin-containing] A (Mus musculus, UniProt Q64133); assay: Inhibition of MAOA in mouse brain mitochondrial fraction assessed as enzyme activity per mg of protein using 5-HT substrate incubated for 20 mins by UV-spectrophotometry; type: tissue-based
T1 sequence (Q64133 whole entry): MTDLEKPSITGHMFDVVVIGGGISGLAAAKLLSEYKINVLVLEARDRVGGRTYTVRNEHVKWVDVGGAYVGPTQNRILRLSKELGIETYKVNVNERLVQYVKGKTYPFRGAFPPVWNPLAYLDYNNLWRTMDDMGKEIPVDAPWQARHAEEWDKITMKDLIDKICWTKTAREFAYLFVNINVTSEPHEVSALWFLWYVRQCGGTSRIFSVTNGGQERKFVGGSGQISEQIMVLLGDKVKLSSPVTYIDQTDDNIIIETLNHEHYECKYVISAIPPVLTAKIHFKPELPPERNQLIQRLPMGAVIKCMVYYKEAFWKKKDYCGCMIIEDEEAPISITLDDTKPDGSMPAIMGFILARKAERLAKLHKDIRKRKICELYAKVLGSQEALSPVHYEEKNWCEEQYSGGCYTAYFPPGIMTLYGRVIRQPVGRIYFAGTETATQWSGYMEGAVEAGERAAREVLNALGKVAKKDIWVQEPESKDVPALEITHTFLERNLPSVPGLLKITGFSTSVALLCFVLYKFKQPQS

[11] = tested on: Radical scavenging activity; assay: Antioxidant activity assessed as DPPH free radical scavenging activity by spectrophotometry; type: functional
[12] = Antioxidant activity assessed as superoxide scavenging activity using xanthine-xanthine oxidase system by NBT dye reduction based assay; type: functional
Pseudomonas aeruginosa [13] = assay: Antimicrobial activity against Pseudomonas aeruginosa NCIM 5029 by broth dilution method; type: functional
Aspergillus flavus [14] = assay: Antimicrobial activity against Aspergillus flavus NCIM 524 by broth dilution method; type: functional
Candida albicans [15] = assay: Antimicrobial activity against Candida albicans NCIM 3471 at 100 ug/mL incubated for 48 hrs by agar disc diffusion method; type: functional; conditions: NCIM 3471, 48 h, read-out: IZ
[16] = target: T2, Amine oxidase [flavin-containing] B (Mus musculus, UniProt Q8BW75); assay: Inhibition of MAOB in mouse brain mitochondrial fraction assessed as enzyme activity per mg of protein using beta-PEA substrate incubated for 20 mins by UV-spectrophotometry; type: tissue-based
T2 sequence (Q8BW75 whole entry): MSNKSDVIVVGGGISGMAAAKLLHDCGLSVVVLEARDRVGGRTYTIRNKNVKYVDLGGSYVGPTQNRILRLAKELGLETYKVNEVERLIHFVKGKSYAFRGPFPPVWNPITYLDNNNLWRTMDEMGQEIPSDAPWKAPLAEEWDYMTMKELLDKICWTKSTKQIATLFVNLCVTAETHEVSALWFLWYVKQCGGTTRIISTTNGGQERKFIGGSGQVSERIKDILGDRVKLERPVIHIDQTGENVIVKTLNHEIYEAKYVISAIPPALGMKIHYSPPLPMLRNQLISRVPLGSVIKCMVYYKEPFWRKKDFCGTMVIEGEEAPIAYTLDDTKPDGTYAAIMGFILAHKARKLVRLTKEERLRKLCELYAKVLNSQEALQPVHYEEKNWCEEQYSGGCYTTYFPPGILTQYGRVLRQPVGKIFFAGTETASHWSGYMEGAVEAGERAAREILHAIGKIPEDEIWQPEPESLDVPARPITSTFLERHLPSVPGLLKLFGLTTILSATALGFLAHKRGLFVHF

Mus musculus [17] = assay: Antidepressant activity in Swiss albino mouse assessed as mean immobility time measured during 6 mins period at 20 mg/kg, po administered 30 mins before test by tail suspension test (reference value: 185.7 +/- 5.33 secs); type: functional
Staphylococcus aureus [18] = assay: Antimicrobial activity against Staphylococcus aureus NCIM 5021 by broth dilution method; type: functional
Aspergillus flavus [19] = assay: Antimicrobial activity against Aspergillus flavus NCIM 524 at 10 ug/disc incubated for 48 hrs by agar disc diffusion method; type: functional; conditions: NCIM 524, 48 h
Candida albicans [20] = assay: Antimicrobial activity against Candida albicans NCIM 3471 at 10 ug/disc incubated for 48 hrs by agar disc diffusion method; type: functional; conditions: NCIM 3471, 48 h, read-out: IZ
Bacillus subtilis [21] = assay: Antimicrobial activity against Bacillus subtilis NCIM 2999 at 10 ug/disc incubated for 24 hrs by agar disc diffusion method; type: functional; conditions: NCIM 2999, 24 h, read-out: IZ
Escherichia coli [22] = assay: Antimicrobial activity against Escherichia coli NCIM 2574 at 10 ug/disc incubated for 24 hrs by agar disc diffusion method; type: functional; conditions: NCIM 2574, 24 h, read-out: IZ
Staphylococcus aureus [23] = assay: Antimicrobial activity against Staphylococcus aureus NCIM 5021 at 10 ug/disc incubated for 24 hrs by agar disc diffusion method; type: functional; conditions: NCIM 5021, 24 h, read-out: IZ
Pseudomonas aeruginosa [24] = assay: Antimicrobial activity against Pseudomonas aeruginosa NCIM 5029 at 10 ug/disc incubated for 24 hrs by agar disc diffusion method; type: functional; conditions: NCIM 5029, 24 h, read-out: IZ

SMILES	zone of inhibition at 100 µg/mL (Staphylococcus aureus [1])	zone of inhibition at 100 µg/mL (Escherichia coli [2])	MIC (Candida albicans [3])	MIC (Escherichia coli [4])	MIC (Bacillus subtilis [5])	zone of inhibition at 100 µg/mL (Pseudomonas aeruginosa [6])	zone of inhibition at 100 µg/mL (Bacillus subtilis [7])	zone of inhibition at 100 µg/mL (Aspergillus flavus [8])	Time (Mus musculus [9])	Activity [10]	IC50 [11]	IC50 [12]	MIC (Pseudomonas aeruginosa [13])	MIC (Aspergillus flavus [14])	zone of inhibition at 100 µg/mL (Candida albicans [15])	Activity [16]	Time (Mus musculus [17])	MIC (Staphylococcus aureus [18])	further results
COc1cc(/C=C/C(=O)N2CCCCC2)cc2c1OCO2	10 mm	15 mm	28 µg/mL (≈ 96.8 µM)	30 µg/mL (≈ 104 µM)	26 µg/mL (≈ 89.9 µM)	16 mm	13 mm	11 mm	32.15 s	17.09 nmol	14.9 µg/mL (≈ 51.5 µM)	18.2 µg/mL (≈ 62.9 µM)	30 µg/mL (≈ 104 µM)	30 µg/mL (≈ 104 µM)	12.5 mm	18.01 nmol	78.18 s	24 µg/mL (≈ 82.9 µM)	
COc1cc(/C=C/C(=O)N2CCC(O)CC2)cc2c1OCO2	10 mm	11 mm	100 µg/mL (≈ 328 µM)	> 100 µg/mL	50 µg/mL (≈ 164 µM)	11 mm	7 mm	10.2 mm	30.8 s	14.46 nmol	8.3 µg/mL (≈ 27.2 µM)	12.8 µg/mL (≈ 41.9 µM)	> 100 µg/mL	90 µg/mL (≈ 295 µM)	14 mm	15.72 nmol	76.18 s	50 µg/mL (≈ 164 µM)	
COc1cc(/C=C/C(=O)N2CCCC(O)C2)cc2c1OCO2 (stereo not drawn)	8 mm	7 mm	100 µg/mL (≈ 328 µM)	> 100 µg/mL	62 µg/mL (≈ 203 µM)	12 mm	11 mm	10 mm	35.4 s	16.63 nmol	13.4 µg/mL (≈ 43.9 µM)	16.9 µg/mL (≈ 55.3 µM)	> 100 µg/mL	> 100 µg/mL	18 mm	17.33 nmol	84.2 s	50 µg/mL (≈ 164 µM)	
C#CCN(C)CCCOc1ccc(Cl)cc1Cl [CLORGILINE]										17.05 nmol						18.16 nmol			
OC(Cn1cncn1)(Cn1cncn1)c1ccc(F)cc1F [FLUCONAZOLE]			5 µg/mL (≈ 16.3 µM)					19 mm											MIC (Aspergillus flavus [19]): 5 µg/mL (≈ 16.3 µM); zone of inhibition at 10 µg/disc (Candida albicans [20]): 16 mm
CN[C@@H]1[C@H](O[C@H]2[C@H](O[C@H]3[C@H](O)[C@@H](O)[C@H](N=C(N)N)[C@@H](O)[C@@H]3N=C(N)N)O[C@@H](C)[C@]2(O)C=O)O[C@@H](CO)[C@H](O)[C@H]1O [STREPTOMYCIN]				5 µg/mL (≈ 8.6 µM)	5 µg/mL (≈ 8.6 µM)								5 µg/mL (≈ 8.6 µM)					5 µg/mL (≈ 8.6 µM)	zone of inhibition at 10 µg/disc (Bacillus subtilis [21]): 10.4 mm; zone of inhibition at 10 µg/disc (Escherichia coli [22]): 14.5 mm; zone of inhibition at 10 µg/disc (Staphylococcus aureus [23]): 11.6 mm; zone of inhibition at 10 µg/disc (Pseudomonas aeruginosa [24]): 14 mm
